Data: patent US9279806B2, “Water-soluble AIE luminogens for monitoring and retardation of fibrillation of amyloid proteins” (THE HONG KONG UNIVERSITY OF SCIENCE AND TECHNOLOGY, priority 2005, dated 2016)

Legend:
G-quadruplex of G1 = assay: Isothermal titration calorimetry (ITC); type: binding, human
Description: It is clear that TTAPE is highly affinitive to K^+-containing G-quadruplex but not its Na^+ cousin. Isothermal titration calorimetry (ITC) measurements are performed, in an effort to understand the thermodynamic basis for the binding affinity difference. ITC is a sensitive technique for the studies of bimolecular processes and can provide direct information about binding affinities and associated thermodynamic parameters. A calorimetric titration experiment was performed at 25.00±0.01° C. on a MicroCal VP-ITC apparatus. G1 solutions for the ITC experiments were prepared in all-potassium (K-Tris: 5 mM Tris-HCl and 150 mM KCl) or all-sodium (Na-Tris: 5 mM Tris-HCl and 150 mM NaCl) buffer at pH 7.50, as required. The buffer solution of G1 was heated to 85° C. and cooled slowly to ensure the folding of the DNA into G-quadruplex structure. For a typical titration, a series of 10 μL aliquots of TTAPE solution were injected into the G1/M^+ solution at a 240 s interval. The heat for each injection was determined by the integration of the peak area in the thermogram with respect to time. Blank titration was conducted by injecting TTAPE into the sample cell containing only buffer under the same condition. The interaction heat was corrected by subtracting the blank heat from that for the TTAPE/G1 titration. The kb values were derived by fitting the isotherm curves with Origin 5.0 software.

G1 [1] = assay: Time-dependent FL of G1 folding; type: biochemical, human
Description: Time-dependent FL was measured on a FluostarOptima multifunctional microplate reader (BMG Labtechnologies) with λex/λem set at 350/470 nm. To gain insight into dynamics of the folding process of G1, time-dependent FL measurements are performed. Solutions containing TTAPE and G1 are first incubated for 30 min to ensure complete dye/DNA complexation and transferred to a 96-well microtiter plate after incubation. Appropriate amounts of metal ions were added by an automatic injection mode. Kinetic measurements were performed at 20° C. and the FL data were recorded in every 4 s. The change in the emission intensity (1) of the solution after the addition of K^+ can be fitted by a second-order exponential curve: I=A1e^−t/τ1+A2e^−t/τ2+c Eq. (1) where t is the time, τ1 and r2 are the time constants of FL recovery, A^1 and A^2 are the respective amplitudes (the folding process is characterized by negative A values), and c is the FL intensity at t=infinity. Mean time constant (<τ>) was calculated according to eq. 2:
In one embodiment, a solution of potassium chloride is then injected at time t=0 (automatic injection mode) and the emission intensity at 470 nm is monitored. The emission drops abruptly to ˜30% of its original intensity at the beginning but starts to recover after ˜8 s and finally reaches a plateau at ˜320 s (FIG. 42). […]

G1 [2] = assay: PAGE assay of G1, gel poststaining; parameters: species or system human; details: gel poststained with 10 μM TTAPE for 5 min
Description: The FL “turn-on” switching of TTAPE by binding to G1 strand inspires us to check whether it can be used as a DNA marker in the PAGE assay. Electrophoresis assay of G1 was performed on a Hoefer miniVE system in 1xTBE buffer under nondenaturing conditions using a 20% native poly(acrylamide) gel at 100V for 3 h at […]. An AlphaDigiDoc™ system with a DE-500 MultiImage™ II light cabinet and an ML-26 UV transilluminator (Alpha Innotech) was used for data collection and analysis. The gel was poststained with a 10 μM TTAPE solution for 5 min at room temperature, rinsed with distilled water, and photographed under UV light at 290-330 nm by the gel documentation system. EB was used to poststain the gel in parallel for comparison. Concentrations of G1 in the range of 0.5-10.0 μM were used to check the visualizability of the dye-stained DNA in the PAGE assay.
After running PAGE of G1 in a Tris-borate-ethylene-diaminetetraacetic acid (TBE) buffer, the gel is stained by a TTAPE solution for 5 min. […] Ethidium bromide (EB) is a widely used visualization agent for PAGE assay. […] The G1 bands are not visualized until the gel has been stained by EB for as long as 30 min. Band visualization by EB is usually realized by its intercalation into the hydrophobic region of DNA, which makes the staining a slow process. […]

- Binding constant (G-quadruplex of G1; Na+ titration (Na-Tris)): too small to be determined accurately
Compound: CC[N+](CC)(CC)CCOc1ccc(C(=C(c2ccc(OCC[N+](CC)(CC)CC)cc2)c2ccc(OCC[N+](CC)(CC)CC)cc2)c2ccc(OCC[N+](CC)(CC)CC)cc2)cc1.[Br-].[Br-].[Br-].[Br-] [TTAPE, 1,1,2,2-tetrakis[4-(2-triethylammonioethoxy)phenyl]ethene tetrabromide]
- Gibbs energy (ΔG°) (G-quadruplex of G1; G1/K+ buffer, 25 °C): -7.3 kcal/mol
- Weighted mean time constant (<τ>) of FL recovery (G1 [1]; K+ 0.5 M injected into TTAPE/G1, 470 nm, 20 °C): 116 s
- Time at which recovered emission reaches a plateau (G1 [1]; K+ injected into TTAPE/G1, 470 nm): ~320 s
- Detectable G1 concentration (sensitivity test) (G1 [2]): 0.5 µM
